Consider 13 compounds from BindingDB's records for doi:10.7270/Q2W094D4 (Burnham Center For Chemical Genomics, 2011).

The target of this assay is Hexokinase HKDC1 [W721R] (Homo sapiens, UniProt Q2TB90, W721R). As to the kind of experiment: HKDC1 hexokinase inhibitors, dose response, biochemical, W721R variant (AID 504729).
Chain of Hexokinase HKDC1 [W721R] (Q2TB90 whole entry W721R): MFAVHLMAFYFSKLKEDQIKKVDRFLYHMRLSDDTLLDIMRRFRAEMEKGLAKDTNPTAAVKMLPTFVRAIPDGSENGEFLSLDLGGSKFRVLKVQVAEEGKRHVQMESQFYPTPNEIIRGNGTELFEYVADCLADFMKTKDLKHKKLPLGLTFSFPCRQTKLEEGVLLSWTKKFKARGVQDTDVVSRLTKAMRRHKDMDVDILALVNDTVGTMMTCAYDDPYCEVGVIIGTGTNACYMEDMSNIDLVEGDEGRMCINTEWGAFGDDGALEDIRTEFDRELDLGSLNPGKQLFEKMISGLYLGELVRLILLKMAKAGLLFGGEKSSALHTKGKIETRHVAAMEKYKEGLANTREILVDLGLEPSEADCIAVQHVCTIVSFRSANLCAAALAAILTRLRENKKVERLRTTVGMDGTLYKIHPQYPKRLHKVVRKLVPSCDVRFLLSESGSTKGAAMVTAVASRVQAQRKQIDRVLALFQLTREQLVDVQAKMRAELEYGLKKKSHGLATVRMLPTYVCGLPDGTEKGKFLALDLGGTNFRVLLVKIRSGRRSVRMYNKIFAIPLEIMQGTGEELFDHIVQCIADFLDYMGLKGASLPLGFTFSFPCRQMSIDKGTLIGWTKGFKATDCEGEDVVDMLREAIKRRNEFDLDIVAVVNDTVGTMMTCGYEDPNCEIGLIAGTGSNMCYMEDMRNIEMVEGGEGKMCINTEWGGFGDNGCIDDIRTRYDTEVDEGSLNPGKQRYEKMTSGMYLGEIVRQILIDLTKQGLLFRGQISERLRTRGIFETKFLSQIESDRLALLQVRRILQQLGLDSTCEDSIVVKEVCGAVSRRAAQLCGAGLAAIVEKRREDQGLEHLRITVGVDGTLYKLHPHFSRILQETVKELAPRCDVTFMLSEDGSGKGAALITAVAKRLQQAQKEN
Broadly, the IC50 is the midpoint of a concentration-inhibition curve. With `Cc1ccc(/N=C/C2=CC(Cc3ccccc3Cl)C=C([N+](=O)[O-])C2=O)c(O)c1` (stereo not drawn), the IC50 stood at 28.5 µM. As for `Oc1ccc(CN=Nc2ncc(Br)cn2)c(O)c1`, the figure is 1.68 µM; as for `COc1ccc(Cn2c(O)c3[nH]cccc-3c2=O)cc1`, 21.5 µM.

Consider `CC(Nc1cc(O)c2cccnc2c1O)C(=O)c1ccccc1` (stereo not drawn), for which the IC50 came to 18.5 µM. With `COC1=CC(/C=C(\C#N)c2nc3ccc(C)cc3[nH]2)C=C([N+](=O)[O-])C1=O` (stereo not drawn) [(2Z,3E)-3-(3-methoxy-5-nitro-4-oxocyclohexa-2,5-dien-1-ylidene)-2-(5-methyl-1,3-dihydrobenzimidazol-2-ylidene)propanenitrile] the figure was 16.1 µM; with `O=C(/C=C/c1ccco1)NCC(=O)NNC1=c2ccccc2=NC1=O` [MLS001075666], 25.3 µM; with `N#CC(C(=O)CCl)c1nc2c(s1)CCc1ccccc1-2` (stereo not drawn) [MLS001171530], 17.4 µM. Compound `Oc1c(Cl)c(N=CCc2ccccc2)c(O)c2ccccc12` [MLS002608293] gave an IC50 of 7.92 µM. As for `Cc1[nH]c2c(=O)c3c(c(=O)c=2[nH]c1C)C1C=CC3CC1` [MLS002701599], the figure is 2.23 µM.

As for `Cc1ccc(Nc2c3[nH]cccc-3c(=O)n2-c2ccccc2C)cc1C` [SMR000028201], the IC50 amounted to 11.6 µM. Compound `Cc1cccc2c1=NC(=O)C=2NNC(=O)c1ccc(NS(=O)(=O)c2cccs2)cc1` [SMR001246714] returned an IC50 of 15.5 µM. With `O=C1C=CC(CN=Nc2ccc([N+](=O)[O-])cn2)C(O)=C1` (stereo not drawn) [SMR001527138] the figure was 6.23 µM; with `C=c1c(NC(C)=O)c(O)c2nc3n(c2c1O)CCC=3OC(=O)COC` [SMR001565176], 2.18 µM.
